The source of these data is patent publication US4622422A, “Cyclohexanealkanoic acids” (Merrell Dow Pharmaceuticals Inc., priority 1985, dated 1986).

The term IC50 denotes the concentration that inhibits the measured activity by half.

Assay [1] deals with T1, 3H-LTD4 specific receptor (guinea pig lung membranes) (Cavia porcellus, UniProt Q2NNR5).
T1 construct: from tissue; host or cells: guinea pig lung membranes (30,000 g pellet)
T1 sequence (Q2NNR5 1-340): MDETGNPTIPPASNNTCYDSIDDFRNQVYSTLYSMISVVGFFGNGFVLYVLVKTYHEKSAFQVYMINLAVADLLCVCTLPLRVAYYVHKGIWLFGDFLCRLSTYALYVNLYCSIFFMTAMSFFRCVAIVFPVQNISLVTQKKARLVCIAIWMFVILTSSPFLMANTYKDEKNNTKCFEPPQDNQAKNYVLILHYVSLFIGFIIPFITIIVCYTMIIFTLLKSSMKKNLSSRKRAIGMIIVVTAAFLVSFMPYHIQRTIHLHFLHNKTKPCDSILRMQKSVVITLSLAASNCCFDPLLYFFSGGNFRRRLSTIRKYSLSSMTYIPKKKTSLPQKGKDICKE
The assay can be described thus: 3H-LTD4 - Specific Receptor Binding in Guinea Pig Lung Membranes. The settings on record: inhibition of 3H-LTD4 specific binding; pH 7.6, 37° C., 20-40 min; read-out: G.P. LUNG SPECIFIC BINDING IC50. The method, then: Male guinea pigs were sacrificed and the lungs were removed and placed in ice cold 50 mM Tris-HCl buffer, pH 7.4. The lungs were then homogenized with a Polytron homogenizer and the homogenate was centrifuged at 1000 g for 10 minutes at 4° C. The supernatant was then centrifuged at 30,000 g for 15 minutes at 4° C. to obtain the membrane pellet. This pellet was resuspended in 50 mM Tris-HCl to provide the working suspension of lung membranes. Binding assays were then carried out in 50 mM Tris-HCl at pH 7.6 and 37° C. using incubation periods of 20-40 min. Separation of bound ^3 H-LTD4 from free ^3 H-LTD4 were performed by rapid vacuum filtration through Whatman GF/B glass fiber filters using ice cold Tris-HCl buffer and three 4 ml washes. Filtration and washing were completed in less than 8 seconds. The radioactivity on the filters was then measured. Specific binding of ^3 H-LTD4 was defined as the binding of ^3 H-LTD4 in the absence of unlabelled LTD4 minus the binding of ^3 H-LTD4 in the presence of 2×10^-7 M unlabelled LTD4. Specific binding of ^3 H-LTD4 was 60-80% of total binding. […] In these tests increasing concentrations of the agent are used to block the ^3 H-LTD4 specific binding. The concentration that reduces the specific binding of ^3 H-LTD4 by 50% is termed the IC50.

For another assay, the system named is leukotriene D4. The assay is described as follows: In vivo leukotriene D4 antagonist activity in anesthetized guinea pigs (modified Konzett-Rossler preparation). Set-up: species or system guinea pig. The settings on record: 10-20 min before 1 μg/ml LTD4 aerosol (1 min), inflation pressure response. The method, then:
Compounds of the present invention were also tested for in vivo leukotriene D4 antagonist activity in anesthetized guinea pigs using a modified Konzett-Rossler preparation. Specifically, the guinea pigs were anesthetized with sodium pentobarbital and surgically prepared for artificial ventilation by a constant volume respirator. The inflation pressure produced by the respirator was measured for each inflation of the guinea pigs' lungs. Increases in inflation pressure above baseline are indicative of bronchoconstriction. After establishing a baseline inflation pressure, the guinea pig was exposed for 1 minute to an aerosol generated ultrasonically from a 1 μg/ml solution of leukotriene D4. After the inflation pressure returned to baseline, the guinea pig was exposed to an aerosol generated from a solution of a test compound. Ten to twenty minutes later, the guinea pig was re-exposed to a 1 minute aerosol generated from 1 μg/ml leukotriene D4. This response was then compared to the initial response and the % inhibition of the response was determined.

For assay [2], the target named is T2, leukotriene D4 (longitudinal muscle of guinea pig ileum) (Cavia porcellus, UniProt Q2NNR5).
T2 construct: The longitudinal muscle was then carefully dissected from the circular muscle of the ileum; from tissue; host or cells: guinea pig ileum, longitudinal muscle segments
T2 sequence (Q2NNR5 1-340): T1 sequence (Q2NNR5 1-340)
The assay can be described thus: Longitudinal Muscle of Guinea Pig Ileum; antagonism of LTD4-induced contraction. Format: cell-based. The settings on record: 1 μM Indomethacin, 15 min with test agent, then cumulative LTD4, Arunlakshana and Schild, read-out: G.P. ILEUM pA2 (LTD4) (converted). The method, then:
Male, Hartley-Duncan, guinea pigs were sacrificed by cervical dislocation. The terminal portion of the ileum was removed, rinsed, and placed in Burn's modified Tyrode's solution. The longitudinal muscle was then carefully dissected from the circular muscle of the ileum. The longitudinal muscle was cut into 1-2 cm. segments which were placed in a tissue bath containing oxygenated Burn's modified Tyrode's solution warmed to 37° C. A tension of 1.0 gram was then placed on each segment of muscle. After equilibration for 1 hour, 1 μM Indomethacin was added to each bath. After 5 minutes, each tissue segment was then exposed to a concentration of 60 nM leukotriene D4. This response was then considered to be the initial maximal contraction that each segment will produce. After washing the tissue several times, over a 1 hour period, 1 μM Indomethacin was again added to each bath. After a 5 minute period the test agent or vehicle was added to the bath. After 15 minutes, a concentration-response curve was generated using cumulatively increasing concentrations of leukotriene D4. The concentration-response was then compared to the initial maximum contraction. A test compound was considered active, if at concentrations up to 100 μM, it produces a significant shift to the right of the concentration-response relationship to leukotriene D4. The antagonist activity was quantitated in terms of a pA2 value calculated according to the method described by Arunlakshana and Schild, (Brit. J. Pharmac. Chemotherap. 14; 48, 1959).

`CCCCCCCCCCCCC/C=C1\CC[C@@H](CC(=O)O)[C@H](O)[C@H]1SCC(=O)O` (relative stereo) [Example 15A, (1α,2β,3α,4E)-3-[(carboxymethyl)thio]-2-hydroxy-4-tetradecylidenecyclohexaneacetic acid]: the half-inhibitory concentration (IC50) in assay [1] stood at 3000 nM. For the same molecule, the “PERCENT INHIBITION” value with leukotriene D4 (5 mg/ml solution aerosolized) is recorded as 25.3%; with leukotriene D4 (10 mg/ml solution aerosolized), 64.2%. For the same molecule, the Kb in assay [2] is 3390 nM.
As for `CCCCCCCCCCCCC/C=C1\CC[C@@H](CC(=O)O)[C@H](O)[C@H]1SCCC(=O)O` (relative stereo) [Example 15B, (1α,2β,3α,4E)-3-[(2-Carboxyethyl)thio]-2-hydroxy-4-tetradecylidenecyclohexaneacetic acid], the IC50 in assay [1] was 400 nM. The “PERCENT INHIBITION” value in the assay with leukotriene D4 (5 mg/ml solution aerosolized) is 44.3%. In addition, the Kb in assay [2] is 3090 nM.
With `CCCCCCCCCCCCC/C=C1\CC[C@@H](CCC(=O)O)[C@@H](O)[C@@H]1SCC(=O)O` (relative stereo) [Example 15C, (1α,2α,3β,4E)-3-[(Carboxymethyl)thio]-2-hydroxy-4-tetradecylidenecyclohexanepropionic acid], the Kb in assay [2] is 1620 nM.
The same measure, in the same setting: under `CCCCCCCCCCCCC/C=C1\CC[C@@H](CCC(=O)O)[C@@H](O)[C@@H]1SCCC(=O)O` (relative stereo) [Example 15D, (1α,2α,3β,4E)-3-[(2-Carboxyethyl)thio]-2-hydroxy-4-tetradecylidenecyclohexanepropionic acid] stands 2000 nM; under `CCCCCCCCCCCCC/C=C1\CC[C@@H](CCC(=O)O)[C@H](O)[C@H]1SCC(=O)O` (relative stereo) [Example 15E, (1α,2β,3α,4E)-3-[(Carboxymethyl)thio]-2-hydroxy-4-tetradecylidenecyclohexanepropionic acid], 2240 nM; under `CCCCCCCCCCCCC/C=C1\CC[C@@H](CC(=O)O)[C@@H](O)[C@H]1SCC(=O)O` (relative stereo) [Example 18, (1α,2α,3α,4E)-3-[(carboxymethyl)thio]-2-hydroxy-4-tetradecylidenecyclohexaneacetic acid], 30900 nM.
